The experiment deals with ATX (human His-tagged) (Homo sapiens (Human), UniProt Q13822). Nature of the experiment: Human ATX enzyme inhibition assay (fluorescence quenching, MR121 substrate). Type of experiment: biochemical. Particulars: 30 nM ATX, 1 μM MR121 substrate, 30° C., pH 8.0. The method, then: Human ATX Enzyme Inhibition Assay
ATX inhibition was measured by a fluorescence quenching assay using a specifically labeled substrate analogue (MR121 substrate). To obtain this MR121 substrate, BOC and TBS protected 6-amino-hexanoic acid (R)-3-({2-[3-(2-{2-[2-(2-amino-ethoxy)-ethoxy]-ethoxy}-ethoxy)-propionylamino]-ethoxy}-hydroxy-phosphoryloxy)-2-hydroxy-propyl ester (Ferguson et al., Org Lett 2006, 8 (10), 2023) was labeled with MR121 fluorophore (CAS 185308-24-1, 1-(3-carboxypropyl)-11-ethyl-1,2,3,4,8,9,10,11-octahydro-dipyrido[3,2-b:2′,3′-i]phenoxazin-13-ium) on the free amine of the ethanolamine side and then, after deprotection, subsequently with tryptophan on the side of the aminohexanoic acid.
Assay working solutions were made as follows:
Assay buffer (50 mM Tris-HCl, 140 mM NaCl, 5 mM KCl, 1 mM CaCl2, 1 mM MgCl2, 0.01% Triton-X-100, pH 8.0;
ATX solution: ATX (human His-tagged) stock solution (1.08 mg/mL in 20 mM bicine, pH 8.5, 0.15 M NaCl, 10% glycerol, 0.3% CHAPS, 0.02% NaN3), diluted to 1.4-2.5× final concentration in assay buffer;
MR121 substrate solution: MR121 substrate stock solution (800 μM MR121 substrate in DMSO), diluted to 2-5× final concentration in assay buffer.
Test compounds (10 mM stock in DMSO, 8 μL) were obtained in 384 well sample plates (Corning Costar #3655) and diluted with 8 μL DMSO. Row-wise serial dilutions were made by transferring 8 μL cpd solution to the next row up to row O. The compound and control solutions were mixed five times and 2 μL were transferred to 384 well assay plates (Corning Costar #3702). Then, 15 μL of 41.7 nM ATX solution was added (30 nM final concentration), mixed five times and then incubated for 15 minutes at 30° C. 10 μL of MR121 substrate solution was added (1 μM final concentration), mixed 30 times and then incubated for 15 minutes at 30′C.

`CCOc1cc(C(=O)N2C[C@@H]3[C@H](C2)[C@H]2CN(C(=O)c4ccc5[nH]nnc5n4)C[C@@H]32)nc2ccc(C(F)(F)F)cc12` [Example 1.091, [(3aS,3bS,6aR,6bR)-5-(4-ethoxy-6-trifluoromethyl-quinoline-2-carbonyl)-octahydro-cyclobuta[1,2-c;3,4-c′]dipyrrol-2-yl]-(1H-[1,2,3]triazolo[4,5-b]pyridin-5-yl)-methanone] returned an IC50 of 17 nM. This counts as double-digit nanomolar. `O=C(c1ccc2[nH]nnc2c1)N1C[C@@H]2[C@H](C1)[C@H]1CN(C(=O)c3cc(-c4ccc(Cl)cc4)c(OCC(F)(F)F)cn3)C[C@@H]21` [Example 1.107, (1H-benzotriazol-5-yl)-{(3aS,3bR,6aS,6bR)-5-[4-(4-chloro-phenyl)-5-(2,2,2-trifluoro-ethoxy)-pyridine-2-carbonyl]-octahydro-cyclobuta[1,2-c;3,4-c′]dipyrrol-2-yl}-methanone] showed a half-inhibitory concentration (IC50) of 141 nM.

In turn, `O=C(c1ccc2[nH]nnc2c1)N1C[C@@H]2[C@H](C1)[C@H]1CN(C(=O)C3CCc4ccccc4O3)C[C@@H]21` (stereo partly drawn) [Example 1.042, [(3aR,3bS,6aR,6bS)-5-(1H-benzotriazole-5-carbonyl)-octahydro-cyclobuta[1,2-c;3,4-c′]dipyrrol-2-yl]-chroman-2-yl-methanone] showed an IC50 of 632 nM. `N#Cc1ccc2[nH]c(C(=O)N3C[C@@H]4[C@H]5CN(C(=O)c6ccc7[nH]nnc7c6)C[C@H]5[C@@H]4C3)cc2c1` [Example 1.027, 2-[(3aR,3bS,6aR,6bS)-5-(1H-benzotriazole-5-carbonyl)-octahydro-cyclobuta[1,2-c;3,4-c′]dipyrrole-2-carbonyl]-1H-indole-5-carbonitrile]: 828 nM corresponded to half-maximal inhibition (IC50). This IC50 and that of the compound before are within 1.5-fold of each other.

For the compound `CS(=O)(=O)c1cc(C(=O)N2C[C@@H]3[C@H]4CN(C(=O)c5ccccc5)C[C@H]4[C@@H]3C2)cnc1OCC(F)(F)F` [Example 1.111, {(3aS,3bS,6aR,6bR)-5-[5-methanesulfonyl-6-(2,2,2-trifluoro-ethoxy)-pyridine-3-carbonyl]-octahydro-cyclobuta[1,2-c;3,4-c′]dipyrrol-2-yl}-phenyl-methanone], half-maximal inhibition (IC50) was put at 330 nM. Under `CCOc1cc(C(=O)N2C[C@@H]3[C@H]4CN(C(=O)c5ccc6[nH]nnc6c5)C[C@H]4[C@@H]3C2)nc2ccc(Cl)cc12` [Example 1.096, [(3aR,3bS,6aR,6bS)-5-(1H-benzotriazole-5-carbonyl)-octahydro-cyclobuta[1,2-c;3,4-c′]dipyrrol-2-yl]-(6-chloro-4-ethoxy-quinolin-2-yl)-methanone] stands 12 nM. Under “(1H-benzotriazol-yl)-{(3aS,3bS,6aR,6bR)-5-[5-bromo-2-methyl-6-(2,2,2-trifluoro-ethoxy)-pyridine-3-carbonyl]-octahydro-cyclobuta[1,2-c;3,4-c′]dipyrrol-2-yl}-methanone [Example 1.103]” stands 27 nM; under `O=C(c1ccc2[nH]nnc2c1)N1C[C@@H]2[C@H](C1)[C@H]1CN(C(=O)c3cccc(OCC(F)(F)F)n3)C[C@@H]21` [Example 1.098, (1H-benzotriazol-5-yl)-{(3aS,3bR,6aS,6bR)-5-[6-(2,2,2-trifluoro-ethoxy)-pyridine-2-carbonyl]-octahydro-cyclobuta[1,2-c;3,4-c′]dipyrrol-2-yl}-methanone], 859 nM; under `CCOc1nc(C(=O)N2C[C@@H]3[C@H]4CN(C(=O)c5ccc6[nH]nnc6c5)C[C@H]4[C@@H]3C2)cc2ccccc12` [Example 1.073, [(3aR,3bS,6aR,6bS)-5-(1H-benzotriazole-5-carbonyl)-octahydro-cyclobuta[1,2-c;3,4-c′]dipyrrol-2-yl]-(1-ethoxy-isoquinolin-3-yl)-methanone], 3.5 nM. On to `O=C(c1ccc2[nH]nnc2c1)N1C[C@@H]2[C@H](C1)[C@H]1CN(C(=O)c3ccc(-c4ccc(Cl)cc4)c(=O)[nH]3)C[C@@H]21` [Example 1.075, 6-[(3aR,3bS,6aR,6bS)-5-(1H-benzotriazole-5-carbonyl)-octahydro-cyclobuta[1,2-c;3,4-c′]dipyrrole-2-carbonyl]-3-(4-chloro-phenyl)-1H-pyridin-2-one], for which the IC50 worked out at 20 nM. Under `CCOc1cc(C(=O)N2C[C@@H]3[C@H]4CN(C(=O)c5ccc(S(N)(=O)=O)nc5)C[C@H]4[C@@H]3C2)nc2ccccc12` [Example 1.083, 5-[(3aS,3bR,6aS,6bR)-5-(4-ethoxy-quinoline-2-carbonyl)-octahydro-cyclobuta[1,2-c;3,4-c′]dipyrrole-2-carbonyl]-pyridine-2-sulfonic acid amide] stands 154 nM. Under `O=C(c1cc2ccccc2c(OCC2CC2)n1)N1C[C@@H]2[C@H](C1)[C@H]1CN(C(=O)[C@@H]3CCc4[nH]nnc4C3)C[C@@H]21` [Example 1.064, (1-cyclopropylmethoxy-isoquinolin-3-yl)-[(3aR,3bS,6aR,6bS)-5-((R)-4,5,6,7-tetrahydro-1H-benzotriazole-5-carbonyl)-octahydro-cyclobuta[1,2-c;3,4-c′]dipyrrol-2-yl]-methanone] stands 1 nM; under `O=C(c1cc2cc(OC(F)(F)F)ccc2[nH]1)N1C[C@@H]2[C@H](C1)[C@H]1CN(C(=O)[C@@H]3CCc4[nH]nnc4C3)C[C@@H]21` [Example 1.019, [(3aR,3bS,6aR,6bS)-5-((R)-4,5,6,7-tetrahydro-1H-benzotriazole-5-carbonyl)-octahydro-cyclobuta[1,2-c;3,4-c′]dipyrrol-2-yl]-(5-trifluoromethoxy-1H-indol-2-yl)-methanone], 11.5 nM; under `O=C(c1cnc(OCC(F)(F)F)c(C2CCOCC2)c1)N1C[C@@H]2[C@H](C1)[C@H]1CN(C(=O)c3ccc4[nH]nnc4c3)C[C@@H]21` [Example 1.106, (1H-benzotriazol-5-yl)-{(3aS,3bS,6aR,6bR)-5-[5-(tetrahydro-pyran-4-yl)-6-(2,2,2-trifluoro-ethoxy)-pyridine-3-carbonyl]-octahydro-cyclobuta[1,2-c;3,4-c′]dipyrrol-2-yl}-methanone], 169 nM. Under `CC(C)Oc1cc(C(=O)N2C[C@@H]3[C@H](C2)[C@H]2CN(C(=O)[C@@H]4CCc5[nH]nnc5C4)C[C@@H]32)cc2ccccc12` [Example 1.059, (4-isopropoxy-naphthalen-2-yl)-[(3aR,3bS,6aR,6bS)-5-((R)-4,5,6,7-tetrahydro-1H-benzotriazole-5-carbonyl)-octahydro-cyclobuta[1,2-c;3,4-c′]dipyrrol-2-yl]-methanone] stands 1.3 nM. With `O=C(OCc1cc(Cl)cc(Cl)c1)N1C[C@@H]2[C@H](C1)[C@H]1CN(C(=O)c3ccc4[nH]nnc4c3)C[C@@H]21` [Example 2.001, (3aR,3bS,6aR,6bS)-5-(1H-Benzotriazole-5-carbonyl)-octahydro-cyclobuta[1,2-c;3,4-c′]dipyrrole-2-carboxylic Acid 3,5-dichloro-benzyl Ester], the IC50 worked out at 4.5 nM. This IC50 is about 3.5-fold higher than that of the compound before. Under `O=C(c1cnc(OCC(F)(F)F)c(C2CC2)c1)N1C[C@@H]2[C@H](C1)[C@H]1CN(C(=O)c3ccc4[nH]nnc4c3)C[C@@H]21` [Example 1.104, (1H-benzotriazol-5-yl)-{(3aS,3bS,6aR,6bR)-5-[5-cyclopropyl-6-(2,2,2-trifluoro-ethoxy)-pyridine-3-carbonyl]-octahydro-cyclobuta[1,2-c;3,4-c′]dipyrrol-2-yl}-methanone] stands 10 nM; under `O=C(c1ccc2[nH]nnc2c1)N1C[C@@H]2[C@H](C1)[C@H]1CN(C(=O)c3ccc(C(F)(F)F)c(OCC(F)(F)F)n3)C[C@@H]21` [Example 1.097, (1H-benzotriazol-5-yl)-{(3aS,3bR,6aS,6bR)-5-[6-(2,2,2-trifluoro-ethoxy)-5-trifluoromethyl-pyridine-2-carbonyl]-octahydro-cyclobuta[1,2-c;3,4-c′]dipyrrol-2-yl}-methanone], 25 nM. In turn, `O=C(c1ccc2[nH]nnc2c1)N1C[C@@H]2[C@H](C1)[C@H]1CN(C(=O)c3cc4ccccc4c(OCC(F)(F)F)n3)C[C@@H]21` [Example 1.060, [(3aR,3bS,6aR,6bS)-5-(1H-benzotriazole-5-carbonyl)-octahydro-cyclobuta[1,2-c;3,4-c′]dipyrrol-2-yl]-[1-(2,2,2-trifluoro-ethoxy)-isoquinolin-3-yl]-methanone] yielded an IC50 of 4.7 nM. `O=C(CCc1ccc(OC(F)(F)F)cc1)N1C[C@@H]2[C@H](C1)[C@H]1CN(C(=O)c3ccc4[nH]nnc4c3)C[C@@H]21` [Example 1.001, 1-[(3aS,3bR,6aS,6bR)-5-(1H-benzotriazole-5-carbonyl)-octahydro-cyclobuta[1,2-c;3,4-c′]dipyrrol-2-yl]-3-(4-trifluoromethoxy-phenyl)-propan-1-one]: the IC50 was determined as 11 nM.

For the origin of these results see patent US10849881B2, “Octahydro-cyclobuta[1,2-c;3,4-c′]dipyrrol-2-yl” (Hoffmann-La Roche Inc., priority 2013, dated 2020).
